The target of one experiment is mHCN1 (Mouse HCN1) (Mus musculus, UniProt O88704). As to the kind of experiment: whole-cell patch clamp of Ih in transfected HEK […] cells. It is filed as cell-based. In general terms: In patch-clamp work, channel activity is measured electrically.
For another experiment, the target named is T1, mHCN2 (Mouse HCN2) (Mus musculus, UniProt O88703).
T1 sequence (O88703 1-863): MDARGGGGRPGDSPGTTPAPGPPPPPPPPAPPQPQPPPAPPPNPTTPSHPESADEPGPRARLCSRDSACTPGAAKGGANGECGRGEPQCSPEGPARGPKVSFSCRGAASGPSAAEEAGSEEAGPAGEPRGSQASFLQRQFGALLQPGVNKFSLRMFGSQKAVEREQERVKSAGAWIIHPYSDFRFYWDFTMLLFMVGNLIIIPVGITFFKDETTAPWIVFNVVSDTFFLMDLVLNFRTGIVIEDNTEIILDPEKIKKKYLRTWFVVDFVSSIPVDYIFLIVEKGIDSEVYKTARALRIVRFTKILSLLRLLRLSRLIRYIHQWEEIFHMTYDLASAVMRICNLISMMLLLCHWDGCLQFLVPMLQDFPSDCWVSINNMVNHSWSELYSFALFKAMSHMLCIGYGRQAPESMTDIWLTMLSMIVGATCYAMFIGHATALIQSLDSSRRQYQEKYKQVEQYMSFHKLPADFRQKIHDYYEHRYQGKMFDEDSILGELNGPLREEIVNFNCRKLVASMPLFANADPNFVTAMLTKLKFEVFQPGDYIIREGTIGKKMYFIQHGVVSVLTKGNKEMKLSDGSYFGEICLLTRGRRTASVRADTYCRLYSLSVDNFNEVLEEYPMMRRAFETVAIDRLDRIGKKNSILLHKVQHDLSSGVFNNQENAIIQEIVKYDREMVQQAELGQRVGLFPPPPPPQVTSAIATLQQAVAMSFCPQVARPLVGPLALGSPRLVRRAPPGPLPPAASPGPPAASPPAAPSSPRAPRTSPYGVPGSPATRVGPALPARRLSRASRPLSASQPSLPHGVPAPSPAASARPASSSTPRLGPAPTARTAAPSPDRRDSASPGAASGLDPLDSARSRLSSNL
The description is as above. It is filed as cell-based.

Each structure is given as a SMILES string.

This passage reports IC50 results from article PMC6571133, “Capsazepine prolongation of the duration of lidocaine block of sensory transmission in mice may be mediated by modulation of HCN channel currents” (PeerJ, 2019).

mHCN1 (Mouse HCN1), sequence (O88704 whole entry): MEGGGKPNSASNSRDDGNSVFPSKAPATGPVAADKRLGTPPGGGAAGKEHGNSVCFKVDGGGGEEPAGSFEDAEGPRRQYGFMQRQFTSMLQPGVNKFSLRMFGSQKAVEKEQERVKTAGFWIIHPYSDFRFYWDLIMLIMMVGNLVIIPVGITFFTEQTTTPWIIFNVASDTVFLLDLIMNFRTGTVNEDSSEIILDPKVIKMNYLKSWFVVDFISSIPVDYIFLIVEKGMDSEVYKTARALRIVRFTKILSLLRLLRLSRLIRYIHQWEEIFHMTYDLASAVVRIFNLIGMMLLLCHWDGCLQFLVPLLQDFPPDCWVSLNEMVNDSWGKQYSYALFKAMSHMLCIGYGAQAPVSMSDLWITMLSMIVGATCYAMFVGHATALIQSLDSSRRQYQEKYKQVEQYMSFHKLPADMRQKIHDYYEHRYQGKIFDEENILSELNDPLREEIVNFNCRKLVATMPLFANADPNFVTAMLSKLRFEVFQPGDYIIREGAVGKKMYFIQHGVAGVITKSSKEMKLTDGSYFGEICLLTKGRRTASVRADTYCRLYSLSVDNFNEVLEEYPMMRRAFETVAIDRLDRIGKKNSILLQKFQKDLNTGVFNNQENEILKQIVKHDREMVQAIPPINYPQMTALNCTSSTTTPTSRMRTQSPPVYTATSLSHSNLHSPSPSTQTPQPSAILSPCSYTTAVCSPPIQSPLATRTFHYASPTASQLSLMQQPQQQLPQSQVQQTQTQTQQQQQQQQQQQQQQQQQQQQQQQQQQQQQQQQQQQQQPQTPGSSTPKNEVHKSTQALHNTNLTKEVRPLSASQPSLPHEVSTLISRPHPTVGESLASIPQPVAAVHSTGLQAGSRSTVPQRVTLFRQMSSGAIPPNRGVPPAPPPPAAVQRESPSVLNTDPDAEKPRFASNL

As a reminder, the IC50 is the concentration at which inhibition is half-maximal. Read a low IC50 as inhibition by little substance. On to `Oc1cc2c(cc1O)CN(C(=S)NCCc1ccc(Cl)cc1)CCC2` [CPZ, Capsazepine], for which the values for the 50% inhibitory concentration (IC50) on mHCN1 (Mouse HCN1) and on mHCN2 (Mouse HCN2) were 8.2 ± 0.3 µM and 9.6 ± 0.4 µM, respectively.
